Patent publication US20030212102A1, “Novel solid dispersion compositions” (priority 2002, published 2003)
≈ marks a conversion by molar mass, not a printed value.

Experiment: Solubility and dissolution in simulated gastric fluid, USP Apparatus 2, non-sink conditions
Type: physicochemical
Settings: simulated gastric fluid without enzymes, 37 °C, thermodynamic from solid; simulated gastric fluid without enzyme, pH 1.2; read-out: in vitro solubility
Protocol: Physical matrix mixtures and melted carriers were made and tested to compare the baseline solubility and background absorbance to that of the solid dispersions. The resultant solid dispersion were yellow-orange hard solids with some air pockets formed by the cooling process. The dispersion solubility and dissolution rate were analyzed by USP Apparatus 2 dissolution. The dissolution was performed under the following conditions: SGF dissolution media, 0.1 M HCL without enzymes pH 1.2; non-sink conditions of 350-370 mL media; paddle speed of 50 rpm; temperature of 37° C.; 10 mL sample pull not replaced. Analysis of the (S)-(−)-N-(α-Ethylbenzyl)-3-hydroxy-2-phenylquinoline-4-carboxamide was performed using a UV spectrophotometer at 359 nm compared to standard solutions.

solubility: 31 µg/mL (≈ 81.1 µM)
Compound: CC[C@H](NC(=O)c1c(O)c(-c2ccccc2)nc2ccccc12)c1ccccc1 [(S)-(−)-N-(α-Ethylbenzyl)-3-hydroxy-2-phenylquinoline-4-carboxamide]
